In paper PMC6058731, “Dual-targeting for brain-specific drug delivery: synthesis and biological evaluation” (Drug Delivery, 2018):

What was measured:
[1] = Metabolic stability in mice brain homogenate; assay type: in vitro ADME; conditions: 37 °C
Method: (§1) The preliminary metabolic stability of prodrugs was studied by incubating in plasma and brain homogenate, respectively. 1 ml of the prodrugs methanol solution (250 μM) was added into 4 ml plasma or brain homogenate. Then, the entire system was kept at 37 ± 0.5 °C with continuous shaking at 100 rpm/min. 200 μl samples were taken at the following time points: 0, 0.5, 1, 2, 3, 6, 12, and 24 h, and then replaced by plasma or brain homogenate. The internal standard (naproxen, 10 μl, 30 μg/ml) was added to each sample followed by 200 μl acetonitrile.
(§2) The metabolic stability of the prodrugs was studied in the mice plasma and brain homogenate at 37 °C. The Kdisapp and t1/2 of the prodrugs in plasma and brain homogenate were calculated by linear regression of the peak area against time (Table 2).

[2] = test system: cerebral ischemia model induced by bilateral common carotid artery occlusion; assay: Brain ischemia model, SOD, MDA and GSH in brain homogenate; assay type: in vivo, Wistar rats; conditions: rat brain homogenate, 1 mg/kg (calculated as ibuprofen) tail vein; for MDA level: relative to sham group
[3] = Metabolic stability in mice plasma; assay type: in vitro ADME; conditions: 37 °C
Method: as §1, §2

[4] = test system: cerebral ischemia model induced by bilateral common carotid artery occlusion; assay: Brain ischemia model, TTC staining of brain sections; assay type: in vivo, Wistar rats; conditions: rats, 1 mg/kg (calculated as ibuprofen) tail vein, 30 min before 1.5 h ligation
[5] = Distribution in brain in mice, brain homogenate; assay type: in vivo, Kunming mice; conditions: for AUC(0–t): brain homogenate, ibuprofen after hydrolysis of sample, 10 mg/kg (calculated as ibuprofen) tail vein
Method: Kunming mice weighing 20–22 g were purchased from DOSSY Experimental Animal Center of Chengdu (Sichuan, China). All animal procedures for this study were approved by the Experiment Animal Administrative Committee of Sichuan University (P.R. China).
At appropriate time interval (5, 10, 15, 30, 45, 60, 90, 120, 240 and 480 min), blood was collected from the eye socket of mouse into a tube containing heparin, and centrifuged at 5000 rpm for 5 min. The supernatant was collected as plasma sample. The animals were killed by cervical dislocation, and the brain tissue was removed, and then washed with saline for three times to remove the remained blood and rolled over on the filter paper to remove the main vessel. All the brain tissues were homogenized with twice amount of saline. An aliquot of 10 μl of internal standard (naproxen, 30 μg/ml) was added into 200 μl plasma or 200 μl brain homogenate, the mixture was vortexed with 200 μl methanol for 5 min. Then, an aliquot of 50 μl of 6 M NaOH aqueous solution was added to the spiking mixture. […] Followed by vortexing for 5 min, 0.6 ml acetonitrile was added and the mixture was centrifuged at 15,000 rpm for 10 min. The separated supernatant was evaporated to dryness at 40 °C under air flow. The residues were redissolved in 50 μl methanol and centrifuged at 15,000 rpm for 10 min, and then 20 μl of the supernatant was injected into the HPLC system for analysis.
The area under the curve (AUC0–t) and the maximal concentration (Cmax) were calculated by Data and Statistics (DAS, Shanghai, China). The statistical analysis of the samples was performed by using a Student’s t-test with p values < .05 as the minimal level of significance. The relative uptake efficiency (RE) and concentration efficiency (CE) were calculated to evaluate the brain-targeting property of prodrugs. The values of REbrain and CEbrain are defined as follows: RE = (AUC 0) Pro/(AUC 0) Ibu, CE=(Cmax)Pro/(Cmax)Ibu.

PC12 cells [6] = assay: Neuroprotective effect against H2O2-induced cytotoxicity, MTT cell viability; assay type: cell-based; conditions: Rattus norvegicus, PC-12, 10 μM pretreatment 4 h, then H2O2 (1 μM) 2 h, read-out: Cell viability (survival rate compared to control)
Method: (§3) The in vitro neurotoxicity model was established using H2O2 to induce oxidative stress and injury in PC12 cells.
Briefly, PC12 cells were seeded in 96-well plates at the density of 6 × 10^4 cell/well and incubated at 37 °C for 24 h. […] After the treatment, the cells were observed under inverted phase contrast microscopy and cell images were recorded. Subsequently, the cells viability was assessed by MTT assay using a microplate reader.

[7] = In vitro chemical stability in phosphate buffers; assay type: physicochemical; conditions: 37 °C
Method: The in vitro chemical stability of prodrugs was investigated by incubating the prodrugs in pH 2.5, 5.0, 7.4 and 8.0 phosphate buffers, respectively. Briefly, 1 ml of the prodrugs methanol solution (250 μg/ml) was added into 4 ml different buffer separately. The entire system was kept at 37 ± 0.5 °C with continuous shaking at 100 rpm/min. 200 μl medium samples were taken at the following time points: 0, 0.5, 1, 2, 3, 6, 12, and 24 h, and then replaced by fresh medium. The samples were analyzed by HPLC (Shimadzu). The analysis was accomplished on a SinoChrom ODS-C18 column (Dalian, China) (200 × 4.6 mm, […]), thermostated at 35 °C. The mobile phase was composed of methanol/water (73:27), and the pH was adjusted to 2.86 with 10% phosphoric acid. The UV […] was 225 nm and the flow rate was set at 1.0 ml/min with a 20 μl injection volume.
These solutions were maintained at 37 °C, and the aliquots were withdrawn in predetermined time intervals, then the concentrations of the prodrugs were determined by HPLC method.

PC12 cells [8] = assay: SOD activity after H2O2 in vitro (colorimetry kit); assay type: cell-based; conditions: 10 μM pretreatment 4 h, then H2O2 (1 μM) 2 h
Method: as §3
The ROS assay kit (S0033; Beyotime Institute of Biotechnology, Jiangsu, China) in DCFH-DA method was used to determine the intracellular ROS generation. PC12 cells were seeded in six-well plates at a density of 5 × 10^5 cells/well and incubated at 37 °C for 24 h. […] Then trypsin–EDTA was used to harvest the cells, which were washed three times with PBS afterward, and finally stained with 2′,7′-dichlorofluorescein diacetate (DCFH-DA, 10 μM) and incubated for 20 min at 37 °C in the dark. After centrifugation (2000 rpm, 3 min), the cell pellet was washed three times with PBS, resuspended in PBS before flow cytometer analysis (Ex 488 nm and Em 525 nm). SOD is an index of superoxide level which neutralizes free oxygen radicals, usually being tested along with ROS level showing oxidative stress. In brief, after harvesting, the cells were resuspended in PBS and lysed by Ultrasonic cell grinder (SCIENTZ-II D, Zhejiang, China) to obtain the cell lysis solution. Then, the SOD activity was evaluated using colorimetry kits (A001; Nanjing Jiancheng Bioengineering Institute, Nanjing, China). Untreated cells were used as the control.

[9] = Kunming, mouse, iv, brain, analyte intact prodrug, before hydrolysis, 10 mg/kg tail vein
[10] = brain, analyte ibuprofen (dosed or released), before hydrolysis, 10 mg/kg tail vein

SMILES: CC(C)Cc1ccc(C(C)C(=O)OC(COC(=O)CCC(=O)OCC2OC(O)C(O)C(O)C2O)C2OC(=O)C(O)=C2O)cc1 (centres unmarked) [Glu-Vc-Ibu]
- Kdisapp [1]: 0.000542 s⁻¹
- half-life at 50 μM ([1]; mouse): 0.355 h
- SOD activity [2]: significant raise compared with saline group or ibuprofen group
- MDA level [2]: 110.96%
- Kdisapp [3]: 0.000187 s⁻¹
- half-life at 50 μM ([3]; mouse): 1.03 h
- TTC red-staining rate compared with the sham group [4]: 87.95%
- Cmax [5, 9]: 26400 ± 1970 ng/g
- MRT [5, 9]: 2.73 h
- Tmax [5, 9]: 0.25 h
- AUC(0–t) [5]: 7308.11 ± 447.86 µg·min/g
- AUC(0-t) [5, 10]: 3393.98 ± 257.39 µg·min/g
- AUC(0-t) ([5]; brain, analyte intact prodrug, before hydrolysis, 10 mg/kg tail vein): 3459.18 ± 223.76 µg·min/g
- viability at 10 µM (PC12 cells [6]): 89.9%
- Kdisapp ([7]; pH 2.5 phosphate buffer): 1.07e-05 s⁻¹
- half-life at 50 μg/ml ([7]; pH 2.5 phosphate buffer): 18.1 h
- Kdisapp ([7]; pH 5.0 phosphate buffer): 3.86e-06 s⁻¹
- half-life at 50 μg/ml ([7]; pH 5.0 phosphate buffer): 49.9 h
- Kdisapp ([7]; pH 7.4 phosphate buffer): 1.5e-05 s⁻¹
- half-life at 50 μg/ml ([7]; pH 7.4 phosphate buffer): 12.8 h
- Kdisapp ([7]; pH 8.0 phosphate buffer): 1.74e-05 s⁻¹
- half-life at 50 μg/ml ([7]; pH 8.0 phosphate buffer): 11.1 h
- SOD activity (PC12 cells [8]): markedly relieved the damage compared with others

SMILES: CC(C)Cc1ccc(C(C)C(=O)O)cc1 (centres unmarked) [Ibuprofen, reference compound]
- SOD activity [2]: did not obviously reverse the decrease of SOD activity
- MDA level [2]: 192.42%
- TTC red-staining rate compared with the sham group [4]: 48.09%
- AUC(0–t) [5]: 2782.42 ± 176.55 µg·min/g
- AUC(0-t) [5, 10]: 2782.42 ± 176.55 µg·min/g
- viability at 10 µM (PC12 cells [6]): 74.1%
